Experimental data from patent US6656911B2, “Serine protease inhibitors” (Cortech, Inc., priority 1994, dated 2003).

What was measured:
[1] = Blood level screening after oral dose; format: in vivo, Sprague-Dawley rats; conditions: rat, oral gavage 10 mg/kg
How it was run: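 Unfasted male Sprague-Dawley rats received 10 mg/kg by oral gavage in PEG, PEG-400 or PEG:H2O:EtOH. Plasma was solvent-extracted and the inhibitor measured by HPLC or LC/MS.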

[2] = target: T1, human neutrophil elastase (HNE) (Homo sapiens, UniProt P08246); test: HNE Ki of CE compounds, tested as described in WO 96/16080; format: biochemical; conditions: read-out: HNE Ki
T1 sequence (P08246 30-267): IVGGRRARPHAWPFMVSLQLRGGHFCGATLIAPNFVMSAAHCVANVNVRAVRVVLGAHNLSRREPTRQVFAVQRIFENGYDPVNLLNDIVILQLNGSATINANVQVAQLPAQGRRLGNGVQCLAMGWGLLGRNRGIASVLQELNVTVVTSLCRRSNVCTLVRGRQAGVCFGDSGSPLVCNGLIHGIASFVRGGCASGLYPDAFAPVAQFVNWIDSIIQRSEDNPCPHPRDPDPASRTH

[3] = system: polymorphoneucleocyte (PMN); test: Extracellular Matrix (ECM) degradation assay; format: cell-based; conditions: PMN's stimulated with opsonized zymosan, 4 hr at 37° C.
Description: Forty-eight well plates on which extracellular matrix had been established were supplied to Cortech by Dr. Simon's group at the State University of New York at Stony Brook. Briefly, the plates were prepared as follows: R22 rat heart smooth muscle cells were seeded into wells at 2.5×10^4 cells/cm. The cells were fed every 4 days with Eagle's Minimal Essential Media supplemented with fetal bovine serum, tryptose phosphate broth, cefotaxime and streptomycin. At confluence, daily supplements of 50 ug/ml ascorbic acid were added for 8 to 10 days during the synthesis of the ECM layer. [^35S]sulfate and [^3H]proline were also added to the culture media to incorporate radiolabel into the matrix. Cells were later lysed with 25 mM NH4OH. Plates were washed three times with water and once with phosphate-buffered saline containing 0.02% NaN3. Plates were stored at 4° C. until use.
Matrix degradation assays were performed as follows: 0.40 ml of Hanks balance salt solution (HBSS) containing 1 or 5 uM test inhibitor (final concentration; diluted from DMSO stock solution; <2% DMSO final concentration) was added to the wells. After 30 minutes, 50 ul of a polymorphoneucleocyte (PMN) suspension was added resulting in 5×10^5 cells/well. PMN's were stimulated with opsonized zymosan. Zymosan particles were washed and suspended in 0.5 ml human serum for 1 hr at 37° C., vortexing every 15 min. The particles were then washed three times with HBSS and added to wells at a ratio of 10 particles/PMN in a volume of 50 ul. After a 4 hr incubation at 37° C., a 100 ul aliquot of the supernatant was withdrawn for scintillation counting. Following removal of the remaining supernatant, the residual ECM was solubilized with 0.5 ml 2M NaOH. The amount of tritium in this solubilized ECM was accessed by scintillation. ECM degradation data are expressed as (soluble counts released/total ECM counts)—(basal counts released without PMN's/total ECM counts).

| SMILES | Plasma Levels (μM) 1 hr ([1]; 1 hr) [µM] | Plasma Levels (μM) 3 hr ([1]; 3 hr) [µM] | Ki [2] [nM] | Plasma Levels (μM) 6 hr ([1]; 6 hr) [µM] | concentration at 1 h ([1]; male, Sprague-Dawley, plasma, 1 hr, read-out: Plasma Levels (μM) 1 hr) [µM] | concentration at 3 h ([1]; male, Sprague-Dawley, plasma, 3 hr, read-out: Plasma Levels (μM) 3 hr) [µM] | concentration at 6 h ([1]; male, Sprague-Dawley, plasma, 6 hr, read-out: Plasma Levels (μM) 6 hr) [µM] | ECM DATA % Inhibition 1 uM ([3]; 1 uM inhibitor) [%] | ECM DATA % Inhibition 5 uM ([3]; 5 uM inhibitor) [%] | inhibition at 1 µM ([3]; 1 uM inhibitor) [%] | inhibition at 5 µM ([3]; 5 uM inhibitor) [%] |
| --- | --- | --- | --- | --- | --- | --- | --- | --- | --- | --- | --- |
| Cc1cccc(Cc2nnc(C(=O)[C@@H](NC(=O)CN3C(=O)N[C@H](C(C)C)C3=O)C(C)C)o2)c1 [CE2174, 4-(R)-Isopropyl-2,5-imidazolidinedione-N-[1-(2-[5-(3-methylbenzyl)-1,3,4-oxadiazolyl]carbonyl)-2-(S)-methylpropyl]acetamide] | 1.86 | 0.97 | 15.2 | – | – | – | – | 1.49 | 18.3 | – | – |
| Cc1cccc(Cc2nnc(C(=O)[C@@H](NC(=O)CN3C(=O)CN=C(c4ccc5c(c4)OCO5)c4ccccc43)C(C)C)o2)c1 [CE2248] | 1.65 | 1.58 | 3.1 | 1.22 | – | – | – | 39.4 | 63.2 | – | – |
| Cc1cccc(Cc2nnc(C(=O)[C@@H](NC(=O)CN3C(=O)NC4(CCCCC4)C3=O)C(C)C)o2)c1 [CE2241, 4-Spirocyclohexane-2,5-imidazolidinedione-N-[1-(2-[5-(3-methylbenzyl)-1,3,4-oxadiazolyl]carbonyl)-2-(S)-methylpropyl]acetamide] | 0.598 | 0.289 | 14 | 0.078 | – | – | – | 18.6 | 31.7 | – | – |
| CC(C)[C@H](NC(=O)[C@@H]1CCCN1C(=O)[C@@H](NC(=O)OCc1ccccc1)C(C)C)C(=O)c1nnc(Cc2ccc3c(c2)OCO3)o1 [CE2177, (Benzyloxycarbonyl)-L-valyl-N-[1-(2-[5-(3,4-methylenedioxybenzyl)-1,3,4-oxadiazolyl]carbonyl)-2-(S)-methylpropyl]-L-prolinamide] | – | – | 0.016 | – | 0.393 | 0.41 | 0 | – | – | 74.2 | 76.8 |
| Cc1cccc(Cc2nnc(C(=O)[C@@H](NC(=O)CN3C(=O)CN=C(c4ccccc4N(C)C)c4ccccc43)C(C)C)o2)c1 [CE2258, 2-Oxo-5-phenyl-1,4-(2′-dimethylaminobenzodiazepine)-N-[1-(2-[5-(3-methylbenzyl)-1,3,4-oxadiazolyl]carbonyl)-2-(S)-methylpropyl]acetamide] | 1.624 | 1.5 | 3.7 | 1.212 | – | – | – | 42.9 | 38.1 | – | – |

Continued, in another order:

| Plasma Levels (μM) 1 hr ([1]; 1 hr) [µM] | Plasma Levels (μM) 3 hr ([1]; 3 hr) [µM] | Ki [2] [nM] | Plasma Levels (μM) 6 hr ([1]; 6 hr) [µM] | concentration at 1 h ([1]; male, Sprague-Dawley, plasma, 1 hr, read-out: Plasma Levels (μM) 1 hr) [µM] | concentration at 3 h ([1]; male, Sprague-Dawley, plasma, 3 hr, read-out: Plasma Levels (μM) 3 hr) [µM] | concentration at 6 h ([1]; male, Sprague-Dawley, plasma, 6 hr, read-out: Plasma Levels (μM) 6 hr) [µM] | SMILES | ECM DATA % Inhibition 1 uM ([3]; 1 uM inhibitor) [%] | ECM DATA % Inhibition 5 uM ([3]; 5 uM inhibitor) [%] | inhibition at 1 µM ([3]; 1 uM inhibitor) [%] | inhibition at 5 µM ([3]; 5 uM inhibitor) [%] |
| --- | --- | --- | --- | --- | --- | --- | --- | --- | --- | --- | --- |
| 0.77 | 0.47 | 4.1 | 0.25 | – | – | – | Cc1cccc(Cc2nnc(C(=O)[C@@H](NC(=O)CN3C(=O)NC(C)(c4ccccn4)C3=O)C(C)C)o2)c1 (stereo partly drawn) [CE2216, [4-(R,S)-(2-Pyridyl)-4-(R,S)-methyl]-2,5-imidazolidinedione-N-[1-(2-[5-(3-methylbenzyl)-1,3,4-oxadiazolyl]carbonyl)-2-(S)-methylpropyl]acetamide] | 32.1 | 37.15 | – | – |
| 1.11 | 0.553 | 2.4 | – | – | – | – | Cc1cccc(Cc2nnc(C(=O)[C@@H](NC(=O)CN3C(=O)NC(c4ccc(N(C)C)cc4)C3=O)C(C)C)o2)c1 (stereo partly shown) [CE2194] | 41 | 58.7 | – | – |
| 0.114 | 0.188 | 1.9 | 0.1 | – | – | – | Cc1cccc(Cc2nnc(C(=O)[C@@H](NC(=O)CN3C(=O)NC(c4ccccc4)(c4ccccc4)C3=O)C(C)C)o2)c1 [CE2252, 4,4-Diphenyl-2,5-imidazolidinedione-N-[1-(2-[5-(3-methylbenzyl)-1,3,4-oxadiazolyl]carbonyl)-2-(S)-methylpropyl]acetamide] | 45.4 | 65.2 | – | – |
